Assay results from PMC12236907, “A Natural Depsipeptide Antibiotic that Targets the E site of the Bacterial Ribosome” (Research Square, 2025).
Where a SMILES comes first, the peptide text is derived from it. Bridges are numbered along the chain shown (N, C = ends). [ ]: non-standard residue; d: D form. dOrn = NCCC[C@@H](N)C(=O)O

Key:
[1] = system: mycobacteria; experiment: Antimicrobial activity, mycobacteria; format: cell-based; conditions: Middlebrook 7H9 + 10% OADC + 0.05% Tween-80
[2] = Murine infection model; format: in vivo; conditions: initial attempts
[3] = system: E. coli BW25113
[4] = system: K. pneumoniae C1559; experiment: Ex vivo efficacy in human blood; format: cell-based, Klebsiella pneumoniae; conditions: K. pneumoniae C1559, 10^5 cfu/ml, 5×MIC of MKM, six hours, 37°C; three biological experiments
Method: Human blood was procured from BioIVT (New York, USA). […] CFUs were determined by serial dilution and cultivation on agar.

[5] = system: E. coli BW25113; experiment: Time-dependent killing assay, E. coli; format: cell-based; conditions: E. coli BW25113, MHB, 5×MIC (160 μg/ml), 37°C, 0-24 h; mean of three biological replicates
Method: E. coli BW25113 and Klebsiella pneumoniae C1559 were grown overnight in 5 ml of cation-adjusted Mueller-Hinton Broth. The cultures were then inoculated into fresh medium to achieve an OD600 of 0.1, corresponding to a concentration of 10^8 CFU/ml. […] Samples were taken at 0 h, 3 h, 6 h, and 24 h post-incubation, plated on MHA plates, and incubated for 20–24 hours at 37°C. Colony counts were used to determine the log reduction in CFU/ml, comparing treated strains to untreated control samples.

[6] = system: E. coli strain SQ110ΔtolC::pZsbmA; conditions: agar with 4×MIC of MKM (32 μg/ml)
[7] = system: E. coli strain SQ110ΔtolC::pZsbmA; experiment: Minimum inhibitory concentration, hypersusceptible E. coli SQ110ΔtolC::pZsbmA and its 23S rRNA mutants; conditions: 11 mutants: deletion of one adenine in A2432-A2435 (10) or of C249 (1) in 23S rRNA
[8] = system: E. coli BW25113 ΔtolCΔbamB expressing ManE; experiment: MIC in ManE-expressing E. coli; conditions: manE on pGDP3
[9] = system: bacterial membrane; experiment: Membrane permeabilization (propidium iodide uptake and NPN assays); format: cell-based; conditions: E. coli BW25113; PI 4 μM up to 10×MIC (80 μg/ml), NPN 10 μM; 30 min, room temperature
Method: E. coli BW25113 cells were prepared according to the method for time-dependent killing and mixed with propidium iodide at a final concentration of 4 μM. A 190 μl aliquot of the cell suspension was added to the wells of a 96-well black-wall plate, followed by the addition of 10 μl of compounds at different concentrations up to 10×MIC (80 μg/ml). Colistin (5 μg/ml) was included as a positive control. Fluorescence was measured at an excitation/emission wavelength of 535/617 nm for 30 min at room temperature using a Synergy Microplate Reader (Biotek).
An overnight culture of E. coli BW25113 was subcultured into fresh MOPS minimal medium and allowed to grow until reaching mid-exponential phase. The culture was then diluted to an OD 600 of 0.1–0.2 in the same medium and supplemented with 10 μM NPN dye (prepared from a 20 mM stock solution in acetone). A volume of 190 μl of this cell suspension was combined with 10 μl of test compounds at various concentrations in a black 96-well plate. Water served as the vehicle control, as MKM-A was dissolved in water (adjust the vehicle accordingly based on the solubility of your compound). Colistin at 5 μg/ml was included as a positive control. Fluorescence was measured over a 30 min period at room temperature using a microplate reader, with readings taken every 0.5–1 min at an excitation/emission wavelength of 350/420 nm.

[10] = highly resistant mutants of E. coli BW25113 selected by passaging

What does the source list for `C[C@@H](O)[C@@H]1NC(=O)[C@@H](CCCNC(=N)N)NC(=O)[C@@H](CCCNC(=N)N)NC(=O)[C@@H](CC(N)=O)NC(=O)[C@@H](NC(=O)[C@@H](Cc2ccccc2)NC(=O)[C@@H](CCCN)NC(=O)[C@H](N)CCCNC(=N)N)[C@@H](C)OC(=O)[C@H](Cc2c[nH]cn2)NC1=O` [MKM, manikomycin A] (H-[dR][dOrn][dF]T[dN][dR][dR]TH; ester 4-C)?
growth inhibition [1]: readily inhibits the growth; protective effect in murine infection model [2]: did not yield a strong protective effect; increase in MIC ([3]; deletion of genes encoding components of the transporter YejABEF): 2–8 fold; MIC [3, 10]: 512 to 1024 µg/mL; increase in MIC over parental strain [3, 10]: 16- to 32 fold; bacterial eradication in human blood [4]: complete eradication; time-kill effect [5]: bactericidal; frequency of resistant colonies [6]: ~ 10^−7; increase in MKM MIC [7]: > 16 fold; increase in MIC on ManE expression [8]: > 32 fold; membrane permeabilization / disruption [9]: failed to permeabilize or distrupt the bacterial membrane
